“Also recorded” adds a separate entry of the source.
Experiments:
[1] = tested on: Farage, Karpas422 and VAL cells; experiment: Viability and cumulative cell number analysis, Farage, Karpas422, VAL; assay type: cell-based; details: 14 days
Method: Farage cells were cultured in RPMI1640 (1×) + 20% heat-inactivated fetal bovine serum (FBS), ULA in Iscove's modified Dulbecco's medium + 20% FBS, whereas Karpas422 and VAL were cultured in RPMI1640 + 20% heat-inactivated FBS, all with the addition of 1% Glutamax and 1% sodium pyruvate.
Farage, ULA, Karpas422, and VAL cells were seeded into T25 tissue culture flasks in a total volume of 7 mL per flask at densities of 5 x10^4, 7 x10^4, 5 x10^4, and 4 x10^4 cells/mL, respectively and incubated overnight at 37 °C and 5% CO2. Cells were then treated with a 3-point titration of GSK137 (0.1 µM, 1 µM, and 10 µM) throughout a 14-day time course. Treatments with multiple concentrations of BI3802 were also included for comparison (Farage and Karpas422 cells were treated with 0.01 µM, 0.1 µM, and 1 µM BI3802; ULA cells were treated with 0.1 µM and 1 µM BI3802; VAL cells were treated with 0.1 µM, 1 µM, and 10 µM BI3802). Viability (trypan blue exlcusion) and cumulative cell number were measured on a Vi-CELL XR 2.03 (Beckman Coulter, Brea, CA, USA) on day of seeding and on days 3, 6, 10, and 14.

[2] = molecular target: T1, BCL6 in Farage DLBCL cells (Homo sapiens, UniProt P41182); experiment: Western blot for BCL6 protein degradation; assay type: cell-based; details: 1 μM for 24 h
T1 construct: endogenous in cells; host or cells: Farage DLBCL cells
Method: Cell pellets were lysed in RIPA buffer containing protease/phosphatase inhibitor cocktail and benzonase, protein concentration determined and samples prepared in reducing conditions and 20 µg of protein loaded per lane. Proteins were then transferred onto a nitrocellulose membrane and probed with rabbit BCL6 antibody (Abcam, Cambridge, UK; ab33901) and mouse GAPDH antibody (Abcam; ab9484) at 1:2000 dilution overnight at 4°C. Blots were probed for 1 hour at room temperature with secondary antibodies (goat anti-rabbit LI-COR, 926-32211 and goat anti-mouse LI-COR, 926-68070) at 1:10,000 dilution). Images were obtained on a LI-COR Odyssey CLx Infrared Imaging System using Image Studio software (Version 5.2).

[3] = molecular target: T2, human BCL6 BTB-POZ domain (SMRT co-repressor peptide) (Homo sapiens, UniProt P41182, C67R/C84N/C8Q); experiment: BCL6 TR-FRET assay, SMRT peptide displacement; assay type: binding
T2 construct: BCL6-Flag-6H-Avi (5-129) C8Q, C67R, C84N proteins; Flag (C); 6H (His6) (C); made in house; host or cells: E. coli
Method: Human, mouse and rat BCL6-Flag-6H-Avi (5-129) C8Q, C67R, C84N proteins were expressed in E. coli according to standard procedures and purified on Ni-NTA, followed by ion exchange on a Source 30Q column and size exclusion on an Superdex 200 column in a buffer of 20 mM Tris, 250 mM NaCl, 5 mM DTT, 5% glycerol, pH 8.5. All protein purities were estimated to be >90% by SDS-PAGE and the expected masses were confirmed by MS analysis. For TR-FRET assay protein was enzymatically biotinylated by treatment of protein at 100 µM with a 2 fold molar excess of biotin in the presence of 2 mM ATP and 1 µM BirA enzyme in a buffer of 50 mM bicine pH 8.3, 10 mM MgCl2 at 30 °C for 1 hour, followed by extensivedialysis against 50 mM Tris-Cl pH 8.0, 100 mM NaCl, 1 mM DTT using a 3.5 kDa cut-off membrane. Biotinylation was confirmed by MS analysis and concentration was determined by Bradford assay, after which protein was stored in aliquots at -80 °C.
Acceptor-labelled SMRT peptide H2N-[…](D2)-OH was dissolved in water by mass to give a 500 µM stock solution which was stored at -20 °C. Acceptor-labelled NCOR peptide H2N-[…](Alexa Fluor 647)-OH and acceptor-labelled BCOR peptide H2N-[…](Alexa Fluor 647)-OH were dissolved to a nominal concentration of 1 mM in DMSO, and stock solution concentration was determined by absorbance at 650 nm using an extinction coefficient of 270,000 M-1cm^-1. […]

Compound | cumulative cell number [1] | degradation of intracellular BCL6 protein [2] | activity in cell-free assay compared with reported potency ([3]; cell-free) | cell viability ([1]; GSK137 0.1-10 μM) | IC50 ([3]; from pIC50 = 8, read-out: affinity for the BCL6 BTB-POZ domain)
CNC(=O)COc1cc2cc(Nc3nc(N4C[C@H](C)C[C@H](C)C4)ncc3Cl)ccc2n(C)c1=O [BI3802, reference compound] | showed some response | degraded BCL6 | consistent with the previously reported potency |  | 
Cc1ncccc1[C@H]1C[C@@H](c2cccc3nc(N)ccc23)Nc2c(F)cnn21 [GSK137, 5-((5S,7R)-3-Fluoro-7-(2-methylpyridin-3-yl)-4,5,6,7-tetrahydropyrazolo[1,5-a]pyrimidin-5-yl)quinolin-2-amine] | no detectable change | did not show this activity |  | no major change in cell viability; also recorded: no detectable change | 10 nM
